Laboratory results as given in paper PMC7297817, “Pharmacological Characterization of a Betaine/GABA Transporter 1 (BGT1) Inhibitor Displaying an Unusual Biphasic Inhibition Profile and Anti-seizure Effects” (Neurochemical Research, 2020).
“Also recorded” adds a separate entry of the source. Read-outs that look alike come from different tables or passages of the source. One block for each compound: values may come before it.

Legend:
hBGT1 = target: T1, hBGT1 (Homo sapiens, UniProt P48065); assay: [3H]GABA uptake at hBGT1 transiently expressed in tsA201 cells; type: cell-based; conditions: for IC50 / inhibition profile (mono-/biphasic): 30 nM [3H]GABA, 3 min; for Frac: proportion of maximal response due to the more potent phase; for inhibition profile (mono-/biphasic): F test; for preferred curve fitting: in the presence of 10 μM ATP
T1 construct: expressed in transfected cells; host or cells: tsA201 (transient)
T1 sequence (P48065 1-614): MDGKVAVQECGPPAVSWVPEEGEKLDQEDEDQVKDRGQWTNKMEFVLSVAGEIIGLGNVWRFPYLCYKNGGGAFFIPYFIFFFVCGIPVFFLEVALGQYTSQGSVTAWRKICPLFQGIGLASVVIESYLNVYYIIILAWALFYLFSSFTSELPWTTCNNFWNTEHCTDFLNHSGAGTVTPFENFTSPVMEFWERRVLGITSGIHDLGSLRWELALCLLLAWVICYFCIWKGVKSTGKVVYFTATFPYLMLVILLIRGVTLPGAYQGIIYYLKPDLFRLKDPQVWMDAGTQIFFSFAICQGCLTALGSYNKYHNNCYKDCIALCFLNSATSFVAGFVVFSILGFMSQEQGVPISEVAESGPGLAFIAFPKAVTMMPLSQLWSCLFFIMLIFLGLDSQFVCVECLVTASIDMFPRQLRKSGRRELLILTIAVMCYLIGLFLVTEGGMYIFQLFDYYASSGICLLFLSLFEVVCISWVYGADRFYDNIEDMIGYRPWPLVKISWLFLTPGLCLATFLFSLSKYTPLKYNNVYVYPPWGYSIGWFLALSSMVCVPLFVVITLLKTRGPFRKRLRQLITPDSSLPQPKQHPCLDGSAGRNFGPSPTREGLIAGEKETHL
Procedure: The tsA201 cell line was used for transient expression while the MDCK II cell line express BGT1 endogenously. Both cell lines were cultured as described. tsA201 cells were transfected with DNA constructs (8 μg per 10 cm dish if not otherwise mentioned) using 40 μL PolyFect transfection reagent according to the manufacturer’s protocol (Qiagen, Venlo, Netherlands). The DNA constructs encoding hBGT1, hGAT1-3 [36], the mutated constructs hBGT1 Q299 and hGAT3 L314Q described previously, and hBGT Y453A were synthesized and sequence validated by Genscript (NJ, USA).
The [^3H]GABA competition uptake assay was performed as previously described. […] Studies related to the inhibition curves with GABA and BPDBA at hBGT1 were obtained both with and without the presence of 10 μM ATP during the [^3H]GABA uptake assay.
All compounds, except BAPTA/AM, were also present at the same concentration during the course of the actual [^3H]GABA uptake assay.
The [^3H]GABA uptake data was normalized to the percentage of total uptake in the individual experiments in the presence of the lowest compound concentration or no compound present. Data presented is the pooled data of at least three independent experiments with three technical replicates. Concentration–response curves (CRCs) were fitted with GraphPad Prism (version 8.2.1, Yosemite, GraphPad Software, San Diego, CA, USA) by non-linear regression to the sigmoidal concentration response model: Y=Bottom+(Top-Bottom)/1+10^LogIC50-X∗nH where Top is the Top plateau, Bottom is the Bottom plateau, X is the logarithm of the concentration of the compound, LogIC50 is the concentration giving a response halfway between Top and Bottom,and nH is the Hill slope.
The best fit for CRCs obtained with the [^3H]GABA uptake assay was identified by the extra-sum-of-squares F test (for convenience referred to as F test).

[1] = tested on: tsA201 cells transiently expressing hBGT1; assay: Fluo-4 Ca2+-assay in tsA201 cells transiently expressing hBGT1; type: cell-based, human; conditions: within the 3 min timeframe; blocked by BAPTA/AM
Procedure: Emission was recorded for 20 s. before adding the compounds (at 4 × concentrations) to the HBSS-HEPES buffer to determine the baseline. […] Data presented is the pooled data of at least three independent experiments with three technical replicates. Changes in fluorescence units (ΔFU) were determined as the maximum fluorescent signal within the 190 s minus the average of the baseline.

[2] = tested on: 74 different neuroreceptors and ion channels; conditions: adrenergic, GABAergic and dopaminergic receptors included; cited from earlier work
[3] = read-out: IC50, low affinity component (high IC50), biphasic fit, tsA201, 8 μg cDNA
[4] = biphasic fit, tsA201, 8 μg cDNA, read-out: IC50, low affinity component (high IC50)
[5] = monophasic fit (biphasic n.s.), read-out: IC50

Compound: Cc1ccsc1C(=CCCN(C)[C@@H]1CCCC[C@H]1C(=O)O)c1sccc1C [(1R,2R)-4a, (1R,2R)-2-((4,4-bis(3-methylthiophen-2-yl)but-3-en-1-yl)(methyl)amino)cyclohexane-1-carboxylic acid]
IC50 (hBGT1; pIC50 ± S.E.M., high affinity component, biphasic fit, tsA201, 8 μg cDNA): 3.39 µM
Frac (hBGT1; 8 μg cDNA): 0.19
IC50 (hBGT1; [3]): 566 µM

IC50 (hBGT1; biphasic fit, tsA201, 8 μg cDNA, read-out: IC50, high affinity component (low IC50)): 11.2 µM
IC50 (hBGT1; [4]): 819 µM
Frac (hBGT1; 8 μg cDNA): 0.26
Compound: CN(CCC=C1c2ccccc2CCc2ccccc21)[C@@H]1CCCC[C@@H]1C(=O)O [(1R,2S)-5c, (1S,2R)-2-((3-(10,11-dihydro-5H-dibenzo[a,d][7]annulen-5-ylidene)propyl)(methyl)amino)cyclohexane-1-carboxylic acid]

Compound: Cc1ccsc1C(=CCCN(C)[C@@H]1CCCC[C@@H]1C(=O)O)c1sccc1C [(1S,2R)-5a, (1S,2R)-2-((4,4-bis(3-methylthiophen-2-yl)but-3-en-1-yl)(methyl)amino)cyclohexane-1-carboxylic acid]
IC50 (hBGT1; IC50, high affinity component (low IC50), biphasic fit, tsA201, 8 μg cDNA): 4.7 µM
Frac (hBGT1; 8 μg cDNA): 0.28
IC50 (hBGT1; [3]): 370 µM

inhibition profile (mono-/biphasic) (hBGT1): biphasic CRC
nH1 (hBGT1; Hill slope of first phase, 8 μg cDNA): –0.79
nH2 (hBGT1; Hill slope of second phase, 8 μg cDNA): –2.35
IC50 (hBGT1; [4]): 190 µM
IC50 (hBGT1; biphasic fit, tsA201, 8 μg cDNA, read-out: pIC50 ± S.E.M., high affinity component (converted)): 2.45 µM
Frac (hBGT1; 8 μg cDNA): 0.30
Compound: Cc1ccsc1C(CCCN(C)[C@@H]1CCCc2onc(O)c21)c1sccc1C [(R)-EF1502, (R)-4-((4,4-bis(3-methylthiophen-2-yl)butyl)(methyl)amino)-4,5,6,7-tetrahydrobenzo[d]isoxazol-3-ol, reference compound]

Compound: Nc1ncnc2c1ncn2[C@@H]1O[C@H](COP(=O)(O)OP(=O)(O)OP(=O)(O)O)[C@@H](O)[C@H]1O [ATP, adenosine 5′-triphosphate, reference compound]
decrease of total [3H]GABA uptake (hBGT1; ATP present during uptake (10 μM per methods)): 9%
intracellular Ca2+ increase [1]: induced a Ca^2+ increase

preferred curve fitting (hBGT1): monophasic fit
IC50 (hBGT1; [5]): 14.8 µM
IC50 (hBGT1; monophasic fit (biphasic n.s.), read-out: pIC50 ± S.E.M. (converted)): 15.1 µM
Compound: O=C(NC1CCN(Cc2ccccc2)CC1)c1ccc(Cl)cc1Cl [BPDBA, N-(1-benzyl-4-piperidinyl)-2,4-dichlorobenzamide, reference compound]
inhibition profile (mono-/biphasic) (hBGT1): monophasic; also recorded: did not inhibit hBGT1 in a biphasic manner

inhibition profile (mono-/biphasic) (hBGT1): monophasic
preferred curve fitting (hBGT1): monophasic fit
Compound: NCCCC(=O)O [GABA, γ-Aminobutyric acid]

Compound: COc1ccccc1C1(O)CCN(CCCn2c3ccccc3c3ccccc32)CC1 [NNC 05-2090, 1-[3-(9H-Carbazol-9-yl)propyl]-4-(2-methoxyphenyl)-4-piperidinol, reference compound]
inhibition profile (mono-/biphasic) (hBGT1): did not inhibit hBGT1 in a biphasic manner
IC50 (hBGT1; [5]): 117 µM

Compound: N-[4,4-bis(3-methyl-2-thienyl)-3-butenyl]-3-hydroxy-4-(methylamino)-4,5,6,7-tetrahydrobenzo[d]isoxazol-3-ol [EF1502]
activity at a broad range of neurotransmitter systems [2]: completely devoid of any activity
